Results published in US4965270A, “Purine derivatives” (Beecham Group p.l.c., priority 1989, dated 1990).
Values after ≈ are worked out from the molar mass of the structure shown.

Assays:
Assay type in all cases: cell-based
[1] = tested on: herpes simplex virus 2 (HSV-2; strain MS); test: Plaque reduction test, herpes simplex virus 2 (strain MS); conditions: Human alphaherpesvirus 2, MRC5, MS strain in MRC-5 cells; each figure is a single test; read-out: IC50, Herpes Simplex Type 2 virus
Procedure: Plaque Reduction Test for Heroes Simplex viruses 1 and 2. Cells (vero or MRC-5) were grown to confluence in 24 well multi-dishes (well diameter 1.5 cm). The drained cell monolayers were each infected with approximately 50 infectious particles of herpes simplex virus 1 (HSV-1; strain HFEM) or herpes simplex virus 2 (HSV-2; strain MS) in 100 μof phosphate-bufferedsaline. The virus was adsorbed for 1 hour at room temperature. After adsorption, residual inoculum was removed from each well and replaced with 0.5ml of Eagle's MEM containing 5% newborn calf serum and 0.9% agarose (A37). Once the agarose had set, dilutions of the test compound, which had been prepared in Eagle's MEM (containing 5% newborn calf serum), were added, each well receiving 0.5ml of liquid overlay. The test compound was diluted to give the following series of […] concentrations: 200, 60, 20, 6 . . . 0.06 μg/ml; final concentrations in the assay ranged, therefore, between 100 μg/ml and 0.03 μg/ml. […]
Cultures from 1 and 2 were fixed in formal saline, the agarose overlays were carefully washed off, and then the cell monolayers were stained with carbol fuchsin. […] In addition, the monolayers were examined for evidence of drug-induced cytotoxicity; the minimum concentration at which cytotoxicity occurs was recorded.

[2] = tested on: herpes simplex virus 1, strain SC16; test: CPE inhibition test (replicating cells), herpes simplex virus 1 (strain SC16); conditions: Human alphaherpesvirus 1, SC16, MRC5, SC16 strain in MRC-5 cells; each figure is a single test; read-out: IC50, Herpes Simplex Type 1 virus
Source text: 3. CPE Inhibition Test (Replicating Cells) for Herpes Simplex Virus 1 MRC-5 cells (in Eagles MEM containing 5% newborn calf serum) were infected in suspension with herpes simplex virus 1, strain SC16 (approximately one infectious particle per 10 cells). One hundred microliters of the infected cell suspension (containing approximately 2× 10^4 cells) were dispensed into each well of a 96 well microtitre plate containing an equal volume of the test drug in medium (Eagles MEM containing 5% newborn calf serum) at concentrations ranging from 200 to 0.09 μg/ml (3-fold dilution steps); final concentrations therefore ranged between 100 to 0.045 μg/ml. The plates were then incubated at 37° C. in a humidified atmosphere of 5% CO2 for 3 days when the virus-induced cytopathic effect (CPE) in the control wells reached 100%. The plates were fixed in formal saline and stained with carbol fuchsin. […] Plates of uninfected cells were set up in parallel to determine the minimum concentration of test compound which caused cytotoxicity.

[3] = tested on: visna virus (strain K184); test: CPE inhibition test (established monolayer), visna virus; conditions: Visna-maedi virus; K184 strain in SCP cells; minimum concentration giving complete protection of the cell monolayers
Procedure: 4. CPE Inhibition Test (Established Monolayer) for Lentiviruses
3×10^4 sheep choroid plexus (SCP) cells were plated into individual wells of a 96 well microtitre plate in 100 μl of Eagle's MEM with Hanks salts containing 10% heat inactivated foetal calf serum (FCS). When monolayers had become established (after 1 or 2 days growth) they were washed with 200 μl of maintenance medium (Eagle's MEM with Hanks salts containing 0.5% FCS) and infected with 100μl of visna virus (strain K184) in maintenance medium (30 TCID50/ ml). Test samples were diluted with maintenance medium in further 96 well microtitre plates over the range 200-0.09 μg/ml by 3-fold dilution steps. 100 μl of the diluted samples was then transferred directly onto virus-infected monolayers (final concentration range therefore 100-0.045 μg/ml) and incubated at 37° C. in a humidified, 5% CO2 incubation until virus-induced CPE was maximal in the untreated virus-infected controls (usually 12-14 days). The plates were fixed with formal saline and stained with crystal violet.
Virus-induced CPE was then scored microscopically and the minimum concentration of sample giving complete protection of the cell monolayers (MIC) determined.

Compound	MIC [3] [µg/mL]	IC50 [1] [µg/mL]	IC50 [2] [µg/mL]
Nc1nc2c(ncn2OC[C@@H](O)CO)c(=O)[nH]1 [Example 31, (S)-9-(2,3-Dihydroxyprop-1-oxy)guanine]	10 (≈ 41.5 µM)	0.06 (≈ 0.249 µM)	0.7 (≈ 2.9 µM)
Nc1nc2c(ncn2OC(CO)CCO)c(=O)[nH]1 (stereo not shown) [Example 8, 9-(1,4-Dihydroxybut-2-oxy)guanine]	30 (≈ 118 µM)		

Further lines, with some results ahead:

MIC [3] [µg/mL]	Compound	IC50 [1] [µg/mL]	IC50 [2] [µg/mL]
3 (≈ 13.3 µM)	Nc1nc2c(ncn2OCCCO)c(=O)[nH]1 [Example 1, 9-(3-Hydroxyprop-1-oxy)guanine]		
0.1 (≈ 0.392 µM)	Nc1nc2c(ncn2OCC(CO)CO)c(=O)[nH]1 [Example 5, 9-(3-Hydroxy-2-hydroxymethylprop-1-oxy)guanine]		
10 (≈ 41.5 µM)	Nc1nc2c(ncn2OCC(O)CO)c(=O)[nH]1 (stereo not shown) [Example 6, 9-(2,3-Dihydroxyprop-1-oxy)guanine]		
